tested on: acid secretion stimulated by pentagastrin of the perfused rat stomach; assay: Secretion-inhibiting action on the perfused rat stomach (pentagastrin-stimulated acid secretion in vivo); conditions: anesthetized female CD rats, pentagastrin 1 μg/kg i.v. stimulation, dose 1 μmol/kg i.d.
From the text: Testing of the Secretion-Inhibiting Action on the Perfused Rat Stomach
In Table A below, the influence of the compounds according to the invention after […] administration is shown on the acid secretion stimulated by pentagastrin of the perfused rat stomach in vivo.
The abdomen of anesthetized rats (CD rats, female, 200-250 g; 1.5 g/kg i.m. urethane) was opened after tracheotomy by means of a median upper abdominal incision and a PVC catheter was fixed transorally in the esophagus and a further catheter via the pylonus such that the ends of the tubing just projected into the gastric lumen. The catheter leading from the pylorus led outwards through a side opening in the right abdominal wall.
After thorough rinsing (about 50-100 ml), warm physiological NaCl solution at 37° C. was continuously passed through the stomach (0.5 ml/min, pH 6.8-6.9; Braun-Unita I). The pH (pH meter 632, glass electrode EA 147; φ=5 mm, Metrohm), and, by titration with a freshly prepared 0.01N NaOH solution to pH 7 (Dosimat 665 Metrohm), the secreted HCl were determined in the effluent in each case collected at an interval of 15 minutes.
The gastric secretion was stimulated by continuous perfusion of 1 μg/kg (=1.65 ml/h) of i.v. pentagastrin (left femoral vein) about 30 min after the end of the operation (i.e. after determination of 2 preliminary fractions). The substances to be tested were administered Intraduodenally in 2,5 ml/kg of liquid volume 60 min after the start of the pentagastrin continuous infusion.
The body temperature of the animals was kept at a constant 37.8-38° C. by infrared irradiation and heat pads (automatic, stepless control by means of rectal temperature sensors).

| SMILES | Inhibition of acid secretion [%] |
| --- | --- |
| COCCO[C@@H]1c2ccn3c(C)c(C)nc3c2N[C@H](c2ccccc2)[C@H]1OC(=O)CCCCO[N+](=O)[O-] [Example 1] | 100 |
| COCCO[C@@H]1c2ccn3c(C)c(C)nc3c2N[C@H](c2ccccc2)[C@H]1OC(=O)CCCO[N+](=O)[O-] [Example 2] | 100 |
| COCCO[C@@H]1c2ccn3c(C)c(C)nc3c2O[C@H](c2ccccc2)[C@@H]1OC(=O)CCCCO[N+](=O)[O-] [Example 3, (7R,8R,9R)-2,3-Dimethyl-7-(2-methoxyethoxy)-9-phenyl-8-(5-nitro-oxy-valeryloxy)-7H-8,9-dihydro-pyrano[2,3-c]imdazo[1,2-a]pyridine] | 100 |
| CCC(CCCOC(=O)O[C@@H]1[C@@H](c2ccccc2)Nc2c(ccn3c(C)c(C)nc23)[C@H]1OCCOC)O[N+](=O)[O-] (stereo partly shown) [Example 4] | 100 |

Reference: patent US20060035892A1, “Nitrosated imidazopyridines” (Atlanta Pharma AG, priority 2002, published 2006)
